From US11155523B2, “Biphenyl compound as CCR2/CCR5 receptor antagonist” (Medshine Discovery Inc., priority 2016, dated 2021)

The compounds below were run against T1, CCR5 (Homo sapiens, UniProt P51681) (assay: CCR5 in vitro test: intracellular calcium signal detected by FLIPR). Settings: HEK293 cells expressing CCR5, agonist RANTES at EC80, calcium signal.
T1 construct: expressed in transfected cells; host or cells: HEK293, clone C13, passage P4
Assay type: cell-based
Method: (§1) Experimental Example 1: CCR2/CCR5 In Vitro Test
(§2) The intracellular calcium signal was detected by FLIPR, and the IC50 value of the compound was used as an index to evaluate the inhibitory effect of the compound on CCR2 and CCR5 receptors.
(§3) 1. Cell line: The cells were inoculated and incubated in a 5% CO2 incubator at 37° C. overnight.
(§4) CCR2/CCR5 density: 1 M (20 k/well)
(§5) 2. Reagents: Fluo-4 Direct, (Invitrogen, Cat #F10471)
(§6) The compound was dissolved in DMSO to prepare a 10 mM solution, and the compound solution was placed in a nitrogen box.
(§7) Agonist reference compounds:
(§8) Preparation of probenecid in FLIPR assay buffer: 1 mL of FLIPR assay buffer was added to […] of probenecid to prepare a 250 mM solution, which is prepared fresh daily.
(§9) 2× (8 μM) Fluo-4 Direct™ Loading Buffer (per 10 mL) • Thaw a bottle of Fluo-4 Direct™ crystal (F10471). • Add 10 mL of FLIPR assay buffer to the vial. • Add 0.2 mL of probenecid to each 10 mL of Fluo-Direct. The final concentration of the assay was 2.5 mM. • Rotate it and place for >5 minutes (in absence of light). • Prepare fresh daily.
(§10) MCP-1 was diluted in FLIPR assay buffer 1:2 into 10 points, starting at 0.5 uM (final 100 nM). RANTES was diluted in FLIPR assay buffer 1:3 into 10 points, starting at 0.5 uM (final 100 nM). 20 uL of serially diluted compound buffer was added to each well of the DRC plate according to the compound plate map.
(§11) Standard compound was diluted in DMSO 1:3 into 11 points, starting at 1 mM. Test compound was diluted in DMSO 1:3 into 11 points, starting at 2 mM. 250 nL of compound solution was transferred into a cell plate using Echo (Greiner #781946).
(§12) (c) Take the cell plate out of the incubator, and gently dispense 20 uL of 2× Fluo-4 Direct wash-free loading buffer into a 384-well cell culture plate using a pipette. The final cell plate is 40 μL in volume.
(§13) (d) Incubate for 50 minutes at 37° C. under 5% CO2, and for 10 minutes at room temperature.
(§14) (e) Take the cell plate out of the incubator, and place it in FLIPR. Place the composite plate and the tip box in FLIPR.
(§15) (f) For DRC plate: • 1) Run the program on FLIPRTETRA. • 2) Read the fluorescent signal. • 3) Transfer 10 μL of compound from the DRC plate to the cell plate. • 4) Read the fluorescent signal. • 5) Calculate the “maximum−minimum” from Read 90 to the maximum allowed. Use FLIPR to calculate the EC80 value of each cell line. • 6) Prepare 5×EC80 concentration of the agonist reference compound.
(§16) (g) For the composite plate (1-add): • 1) Run the program on FLIPRTETRA. • 2) Transfer 10 μl, of 5×EC80 concentration of the agonist reference compound from the composite plate to the cell plate. • 3) Read the fluorescent signal. • 4) Calculate the “maximum−minimum” from Read 90 to the maximum allowed.
(§17) (h) Analyze the data using Prism, and calculate the IC50 value of the compound.

T1 sequence (P51681 whole entry, species assumed): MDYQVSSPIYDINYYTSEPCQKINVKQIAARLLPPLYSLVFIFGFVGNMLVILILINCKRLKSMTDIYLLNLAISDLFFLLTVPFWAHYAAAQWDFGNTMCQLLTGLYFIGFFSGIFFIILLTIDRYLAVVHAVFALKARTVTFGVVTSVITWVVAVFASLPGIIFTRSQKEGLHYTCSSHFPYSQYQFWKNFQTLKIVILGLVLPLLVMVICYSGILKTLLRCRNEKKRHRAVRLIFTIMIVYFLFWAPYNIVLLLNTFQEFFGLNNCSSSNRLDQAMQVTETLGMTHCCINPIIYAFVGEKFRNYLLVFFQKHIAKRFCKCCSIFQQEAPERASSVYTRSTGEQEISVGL

| SMILES | IC50 [nM] |
| --- | --- |
| CCCCOCCOc1ccc(-c2ccc(OC(F)F)c(/C=C/C(=O)Nc3ccc([S@+]([O-])Cc4c(C)ncn4CC)cc3)c2)cc1 [WX046] | 2.8 |
| CCCCOc1ccc(-c2ccc(OC)c(/C=C/C(=O)Nc3ccc([S@@+]([O-])Cc4cncn4CCC)cc3)c2)cc1 [WX048] | 2.6 |
| CCCCOCCOc1ccc(-c2ccc(O)c(/C=C/C(=O)Nc3ccc([S@@+]([O-])Cc4cncn4CCC)cc3)c2)cc1 [WX049] | 9.2 |
| CCCOCCOc1ccc(-c2ccc(OC)c(/C=C/C(=O)Nc3ccc([S@@+]([O-])Cc4cncn4CCC)cc3)c2)cc1 [WX050] | 20.8 |
| CCCCOCCOc1ccc(-c2ccc(OC(F)F)c(/C=C/C(=O)Nc3ccc([S@@+]([O-])Cc4cncn4CCC)cc3)c2)cc1 [WX051] | 1.4 |
| CCCOc1ccc(-c2ccc(OC(F)F)c(/C=C/C(=O)Nc3ccc([S@@+]([O-])Cc4cncn4CCC)cc3)c2)cc1 [WX052] | 11.9 |
| CCCCOCCOc1ccc(-c2cc(Cl)c(OC)c(/C=C/C(=O)Nc3ccc([S@@+]([O-])Cc4cncn4CCC)cc3)c2)cc1 [WX053] | 1.3 |
| CCCCOCCOc1ccc(-c2ccc(OC(F)(F)F)c(/C=C/C(=O)Nc3ccc([S@@+]([O-])Cc4c(C)ncn4CC)cc3)c2)cc1 [WX054] | 9.2 |
| CCCCOCCOc1ccc(-c2ccc(OC(F)(F)F)c(/C=C/C(=O)Nc3ccc([S@+]([O-])Cc4c(C)ncn4CC)cc3)c2)cc1 [WX055] | 6.4 |
| CCCCOCCOc1ccc(-c2ccc(OC)c(/C=C/C(=O)Nc3ccc([S+]([O-])Cc4cnccc4C)cc3)c2)cc1 (stereo not drawn) [WX056] | 16.6 |
| CCCCOCCOc1ccc(-c2ccc([S+]([O-])C(C)C)c(/C=C/C(=O)Nc3ccc([S@@+]([O-])Cc4c(C)ncn4CC)cc3)c2)cc1 (stereo partly drawn) [WX057] | 3.5 |
| CCCCOCCOc1ccc(-c2ccc(SC(C)C)c(/C=C/C(=O)Nc3ccc([S@@+]([O-])Cc4cncn4CCC)cc3)c2)cc1 [WX058] | 5.7 |
| CCCCOCCOc1ccc(-c2cc(C)cc(/C=C/C(=O)Nc3ccc([S@@+]([O-])Cc4cncn4CCC)cc3)c2)cc1 [WX059] | 8.5 |
| CCCCOCCOc1ccc(-c2ccc(C(F)(F)F)c(/C=C/C(=O)Nc3ccc([S@@+]([O-])Cc4cncn4CCC)cc3)c2)cc1 [WX060] | 4.1 |
| CCCCOCCOc1ccc(-c2ccc(OC(F)F)c(/C=C/C(=O)Nc3ccc([S@@+]([O-])Cc4c(C)ncn4CC)cc3)c2)cc1 [WX061] | 15.2 |
| CCCOc1ccc(-c2ccc(OC(F)F)c(/C=C/C(=O)Nc3ccc([S@@+]([O-])Cc4c(C)ncn4CC)cc3)c2)cc1 [WX062] | 20.5 |
| CCCOc1ccc(-c2ccc(OC(F)F)c(/C=C/C(=O)Nc3ccc([S@+]([O-])Cc4c(C)ncn4CC)cc3)c2)cc1 [WX063] | 1.4 |
| CCCOCCOc1ccc(-c2ccc(OC(F)F)c(/C=C/C(=O)Nc3ccc([S@@+]([O-])Cc4cncn4CCC)cc3)c2)cc1 [WX064] | 6.1 |

What follows are compounds tested against T2, CCR2 (Homo sapiens, UniProt P41597) (assay: CCR2 in vitro test: intracellular calcium signal detected by FLIPR). Settings: HEK293 cells expressing CCR2, agonist MCP-1 at EC80, calcium signal.
T2 construct: expressed in transfected cells; host or cells: HEK293, clone C7, passage P6
Assay type: cell-based
Method: as §1, §2, §3, §4, §5, §6, §7, §8, §9, §10, §11, §12, §13, §14, §15, §16, §17

T2 sequence (P41597 whole entry, species assumed): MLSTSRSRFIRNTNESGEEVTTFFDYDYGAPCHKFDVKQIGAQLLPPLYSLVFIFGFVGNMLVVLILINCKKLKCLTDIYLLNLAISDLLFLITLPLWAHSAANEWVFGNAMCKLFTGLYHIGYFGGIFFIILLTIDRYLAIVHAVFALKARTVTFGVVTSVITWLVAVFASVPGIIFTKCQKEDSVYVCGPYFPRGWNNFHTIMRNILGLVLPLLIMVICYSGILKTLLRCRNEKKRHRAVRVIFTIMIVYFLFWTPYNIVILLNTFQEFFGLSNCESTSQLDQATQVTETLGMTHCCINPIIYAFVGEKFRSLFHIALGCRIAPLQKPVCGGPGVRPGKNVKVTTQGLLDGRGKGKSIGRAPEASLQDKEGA

| SMILES | IC50 [nM] |
| --- | --- |
| CCCCOCCOc1ccc(-c2ccc(OC(F)F)c(/C=C/C(=O)Nc3ccc([S@+]([O-])Cc4c(C)ncn4CC)cc3)c2)cc1 [WX046] | 1.1 |
| CCCCOc1ccc(-c2ccc(OC)c(/C=C/C(=O)Nc3ccc([S@@+]([O-])Cc4cncn4CCC)cc3)c2)cc1 [WX048] | 11.8 |
| CCCCOCCOc1ccc(-c2ccc(O)c(/C=C/C(=O)Nc3ccc([S@@+]([O-])Cc4cncn4CCC)cc3)c2)cc1 [WX049] | 13.3 |
| CCCOCCOc1ccc(-c2ccc(OC)c(/C=C/C(=O)Nc3ccc([S@@+]([O-])Cc4cncn4CCC)cc3)c2)cc1 [WX050] | 12.6 |
| CCCCOCCOc1ccc(-c2ccc(OC(F)F)c(/C=C/C(=O)Nc3ccc([S@@+]([O-])Cc4cncn4CCC)cc3)c2)cc1 [WX051] | 5.5 |
| CCCOc1ccc(-c2ccc(OC(F)F)c(/C=C/C(=O)Nc3ccc([S@@+]([O-])Cc4cncn4CCC)cc3)c2)cc1 [WX052] | 80.8 |
| CCCCOCCOc1ccc(-c2cc(Cl)c(OC)c(/C=C/C(=O)Nc3ccc([S@@+]([O-])Cc4cncn4CCC)cc3)c2)cc1 [WX053] | 5.9 |
| CCCCOCCOc1ccc(-c2ccc(OC(F)(F)F)c(/C=C/C(=O)Nc3ccc([S@@+]([O-])Cc4c(C)ncn4CC)cc3)c2)cc1 [WX054] | 43.4 |
| CCCCOCCOc1ccc(-c2ccc(OC(F)(F)F)c(/C=C/C(=O)Nc3ccc([S@+]([O-])Cc4c(C)ncn4CC)cc3)c2)cc1 [WX055] | 7.6 |
| CCCCOCCOc1ccc(-c2ccc(OC)c(/C=C/C(=O)Nc3ccc([S+]([O-])Cc4cnccc4C)cc3)c2)cc1 (stereo not drawn) [WX056] | 71.1 |
| CCCCOCCOc1ccc(-c2ccc([S+]([O-])C(C)C)c(/C=C/C(=O)Nc3ccc([S@@+]([O-])Cc4c(C)ncn4CC)cc3)c2)cc1 (stereo partly drawn) [WX057] | 24.7 |
| CCCCOCCOc1ccc(-c2ccc(SC(C)C)c(/C=C/C(=O)Nc3ccc([S@@+]([O-])Cc4cncn4CCC)cc3)c2)cc1 [WX058] | 28.2 |
| CCCCOCCOc1ccc(-c2cc(C)cc(/C=C/C(=O)Nc3ccc([S@@+]([O-])Cc4cncn4CCC)cc3)c2)cc1 [WX059] | 9.9 |
| CCCCOCCOc1ccc(-c2ccc(C(F)(F)F)c(/C=C/C(=O)Nc3ccc([S@@+]([O-])Cc4cncn4CCC)cc3)c2)cc1 [WX060] | 18.5 |
| CCCCOCCOc1ccc(-c2ccc(OC(F)F)c(/C=C/C(=O)Nc3ccc([S@@+]([O-])Cc4c(C)ncn4CC)cc3)c2)cc1 [WX061] | 8.9 |
| CCCOc1ccc(-c2ccc(OC(F)F)c(/C=C/C(=O)Nc3ccc([S@@+]([O-])Cc4c(C)ncn4CC)cc3)c2)cc1 [WX062] | 84.5 |
| CCCOc1ccc(-c2ccc(OC(F)F)c(/C=C/C(=O)Nc3ccc([S@+]([O-])Cc4c(C)ncn4CC)cc3)c2)cc1 [WX063] | 9.4 |
| CCCOCCOc1ccc(-c2ccc(OC(F)F)c(/C=C/C(=O)Nc3ccc([S@@+]([O-])Cc4cncn4CCC)cc3)c2)cc1 [WX064] | 12.8 |
